In patent US20250314640A1, “SYSTEMS AND METHODS FOR HIGH THROUGHPUT SINGLE MOLECULE TRACKING IN LIVING CELLS” (EIKON THERAPEUTICS, INC., priority 2022, published 2025):
Entries after “also recorded” stand apart in the source; their conditions may differ. Like-named read-outs stand apart in the source and are kept apart here. Blank lines part the entries; values can stand above or below the compound they belong to.

Key:
androgen receptor (AR) = androgen receptor (AR) (Homo sapiens, UniProt P10275)
ER [1] = target: T1, ER (Homo sapiens, UniProt P03372); assay: residence time imaging of ER (track length survival); type: cell-based; parameters: expressed in transfected cells; settings: 100 nM HSP90 inhibition, FIG. 16E; normalized to DMSO
T1 sequence (P03372 1-595): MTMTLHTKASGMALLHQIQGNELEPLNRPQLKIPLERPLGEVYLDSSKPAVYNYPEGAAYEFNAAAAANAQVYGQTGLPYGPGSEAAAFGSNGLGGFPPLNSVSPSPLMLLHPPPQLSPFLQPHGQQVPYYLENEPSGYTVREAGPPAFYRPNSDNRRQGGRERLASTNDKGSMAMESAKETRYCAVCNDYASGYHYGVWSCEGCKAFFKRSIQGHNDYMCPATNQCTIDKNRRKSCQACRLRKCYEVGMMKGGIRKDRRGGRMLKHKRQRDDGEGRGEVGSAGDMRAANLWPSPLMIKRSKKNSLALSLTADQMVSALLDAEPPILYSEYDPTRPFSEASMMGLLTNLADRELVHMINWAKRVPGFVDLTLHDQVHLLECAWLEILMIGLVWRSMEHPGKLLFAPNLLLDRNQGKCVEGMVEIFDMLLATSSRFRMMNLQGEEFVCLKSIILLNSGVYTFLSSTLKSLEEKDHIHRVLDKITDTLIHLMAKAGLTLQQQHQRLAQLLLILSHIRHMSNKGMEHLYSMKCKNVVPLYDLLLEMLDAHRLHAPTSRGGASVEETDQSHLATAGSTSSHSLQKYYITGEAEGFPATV

ER [2] = target: T1, ER; assay: kinetic SMT (kSMT) of ER after compound addition; type: cell-based; parameters: expressed in transfected cells; settings: for t½ of increase in fbound: 100 nM; for time course of the overall effect on fbound: up to four-hour window
Estrogen Receptor (ER) = target: T2, Estrogen Receptor (ER) (Homo sapiens, UniProt P03372); assay: htSMT of HaloTag-ER in U2OS cells (fbound, Dfree; bioactive screen and dose titration); type: cell-based; settings: for change in fbound of ER: follow-up experiments after the screen (FIG. 12B, 14A, 16), 100 nM in FIG. 14A
T2 construct: expressed in transfected cells
T2 sequence (P03372 1-595): T1 sequence (P03372 1-595)

[3] = target: T3, glucocorticoid receptor (GR) (Homo sapiens, UniProt P04150); assay: htSMT of Halo-GR in U2OS cells; type: cell-based; settings: 1 μM antagonist, singly or co-administered with the cognate agonist; FIG. 34D
T3 construct: Because U2OS cells express GR endogenously, HaloTag was inserted right before the stop codon of endogenous NR3C1; endogenous in cells; host or cells: U2OS, CRISPR/Cas9 knock-in at the endogenous NR3C1 locus
T3 sequence (P04150 1-777): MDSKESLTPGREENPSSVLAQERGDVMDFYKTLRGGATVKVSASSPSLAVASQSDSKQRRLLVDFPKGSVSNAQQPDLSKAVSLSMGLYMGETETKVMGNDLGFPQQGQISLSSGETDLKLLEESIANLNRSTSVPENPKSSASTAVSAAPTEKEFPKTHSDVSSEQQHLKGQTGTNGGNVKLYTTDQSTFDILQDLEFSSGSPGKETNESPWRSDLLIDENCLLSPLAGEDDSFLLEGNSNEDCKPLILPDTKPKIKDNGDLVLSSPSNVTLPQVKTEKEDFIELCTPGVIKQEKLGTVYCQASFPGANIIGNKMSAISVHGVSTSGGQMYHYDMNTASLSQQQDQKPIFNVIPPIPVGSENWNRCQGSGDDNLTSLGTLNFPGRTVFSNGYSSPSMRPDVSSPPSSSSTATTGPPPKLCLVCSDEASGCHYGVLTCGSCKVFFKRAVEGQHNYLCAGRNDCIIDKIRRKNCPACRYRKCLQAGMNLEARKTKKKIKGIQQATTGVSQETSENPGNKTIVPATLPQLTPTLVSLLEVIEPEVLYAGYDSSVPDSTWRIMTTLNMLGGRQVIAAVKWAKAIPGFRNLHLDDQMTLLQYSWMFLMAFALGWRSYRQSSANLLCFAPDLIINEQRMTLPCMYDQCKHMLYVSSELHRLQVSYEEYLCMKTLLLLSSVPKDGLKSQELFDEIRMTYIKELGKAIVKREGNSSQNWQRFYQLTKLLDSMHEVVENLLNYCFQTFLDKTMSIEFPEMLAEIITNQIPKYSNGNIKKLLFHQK
Method: Thermo Fisher) at 500 μg/mL, then clonally isolated. […] Between three and six clones were subsequently tested using SMT conditions for response to a control compound, and the most homogenous clones were subsequently expanded for further testing. Unless otherwise specified, all experiments are with a single, clonally isolated cell line. Because U2OS cells express GR endogenously, HaloTag was inserted right before the stop codon of endogenous NR3C1 via homology-directed repair using CRISPR/Cas9. The HaloTag knock-in was validated by imaging using HTL-JF646 staining and through DNA sequencing.
Where appropriate, compounds were serially diluted in an Echo Qualified 384-Well Low Dead Volume Source Microplate (0018544, Beckman Coulter) to generate dose-titration source material.

ER [4] = target: T1, ER; assay: western blot of ER after fulvestrant treatment; type: cell-based; parameters: host or cells: Halo-ER U2OS (transfected fusion), or MCF7 / T47d (endogenous ER); settings: fulvestrant 24 hours prior to lysis; MCF7, T47d, U2OS Halo-ER; FIG. 20A

androgen receptor (AR), sequence (P10275 whole entry): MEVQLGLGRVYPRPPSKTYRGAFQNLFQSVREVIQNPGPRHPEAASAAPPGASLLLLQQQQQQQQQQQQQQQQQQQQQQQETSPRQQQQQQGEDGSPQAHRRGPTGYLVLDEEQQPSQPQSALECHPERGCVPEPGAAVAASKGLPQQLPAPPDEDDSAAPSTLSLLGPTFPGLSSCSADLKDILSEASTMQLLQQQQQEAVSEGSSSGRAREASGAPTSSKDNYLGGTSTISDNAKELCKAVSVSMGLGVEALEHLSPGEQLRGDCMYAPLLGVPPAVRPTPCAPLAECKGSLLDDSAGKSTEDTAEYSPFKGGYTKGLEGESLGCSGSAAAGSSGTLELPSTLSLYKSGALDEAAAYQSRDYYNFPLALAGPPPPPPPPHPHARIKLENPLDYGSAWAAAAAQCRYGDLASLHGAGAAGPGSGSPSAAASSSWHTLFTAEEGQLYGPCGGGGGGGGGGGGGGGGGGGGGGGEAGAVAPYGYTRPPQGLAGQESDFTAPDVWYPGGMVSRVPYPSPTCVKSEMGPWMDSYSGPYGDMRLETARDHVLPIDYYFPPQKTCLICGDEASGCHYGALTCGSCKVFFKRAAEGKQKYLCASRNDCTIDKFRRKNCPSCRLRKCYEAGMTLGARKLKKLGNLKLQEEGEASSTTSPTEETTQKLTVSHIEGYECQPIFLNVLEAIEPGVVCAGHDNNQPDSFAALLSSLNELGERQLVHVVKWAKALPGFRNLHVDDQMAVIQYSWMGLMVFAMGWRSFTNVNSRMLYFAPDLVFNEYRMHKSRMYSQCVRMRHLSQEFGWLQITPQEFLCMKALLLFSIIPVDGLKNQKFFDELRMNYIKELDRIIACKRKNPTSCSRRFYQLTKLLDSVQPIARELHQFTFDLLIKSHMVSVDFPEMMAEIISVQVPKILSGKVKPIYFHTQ

t½ of increase in fbound (ER [2]): 19.3 min | time course of the overall effect on fbound (ER [2]): reached a plateau after an hour | change in fbound of ER (Estrogen Receptor (ER)): increase in fbound
Compound: CC(C)c1cc(-c2n[nH]c(=O)n2-c2ccc3c(ccn3C)c2)c(O)cc1O [ganetespib]
decrease in the total number long binding events (ER [1]): four

degradation of ER (ER [4]): leads to the degradation of ER
Compound: C[C@]12CC[C@@H]3c4ccc(O)cc4C[C@@H](CCCCCCCCC[S+]([O-])CCCC(F)(F)C(F)(F)F)[C@H]3[C@@H]1CC[C@@H]2O (stereo partly drawn) [fulvestrant]
change in fbound of ER in bioactive screen (Estrogen Receptor (ER); 1 μM compound versus DMSO, 5,067 molecules, two replicates): increase in fbound; also recorded: significantly increased fbound

t½ of increase in fbound (ER [2]): 17.5 min | time course of the overall effect on fbound (ER [2]): reached a plateau after an hour | change in fbound of ER (Estrogen Receptor (ER)): increase in fbound
Compound: COc1cccc(-c2cc(F)ccc2[C@H]2Cc3nc(N)nc(C)c3C(=O)N2)n1 [HSP990]

The next lines start with the compound.

Compound: CC(O)c1cc(C(=O)N[C@@H](C)Cn2ccc(-c3ccc(C#N)c(Cl)c3)n2)[nH]n1 (stereo partly drawn) [Darolutamide]
change in AR chromatin binding (fbound) (androgen receptor (AR)): decrease in chromatin binding

Compound: 4-hydroxytamoxifen
change in fbound of ER in bioactive screen (Estrogen Receptor (ER)): significantly increased fbound | maximal increase in ER fbound (Estrogen Receptor (ER)): lower maximal increases in fbound

Compound: CN(C)c1ccc(C(c2ccc(N(C)C)cc2)c2cc([N+](=O)[O-])ccc2Cl)cc1 [AL082D06]
change in GR chromatin binding (fbound) [3]: decrease in chromatin binding

Compound: CC(C)C[C@H](NC(=O)[C@H](CCc1ccccc1)NC(=O)CN1CCOCC1)C(=O)N[C@@H](Cc1ccccc1)C(=O)N[C@@H](CC(C)C)C(=O)[C@@]1(C)CO1 [carfilzomib]
time course of the overall effect on fbound (ER [2]): slowly increasing over the four-hour measurement window

Compound: CC(C)C[C@H](NC(=O)[C@H](Cc1ccccc1)NC(=O)c1cnccn1)B(O)O [bortezomib]
time course of the overall effect on fbound (ER [2]): slowly increasing over the four-hour measurement window
